Laboratory results published in PMC6470675, “Design and Synthesis of New Quinoxaline Derivatives as Anticancer Agents and Apoptotic Inducers” (Molecules, 2019).

Assays:
VEGFR-2 [1] = molecular target: T1, VEGFR-2 (Homo sapiens, UniProt P35968); assay: In vitro VEGFR-2 inhibition assay (Kinase-Glo Plus luminescence); type: biochemical
T1 construct: purchased Bio Science Corporation (BPS), San Diego, CA, USA
Protocol: In an attempt to investigate the possible mechanism of action of the synthesized compounds based on structural similarity with sorafenib, all of them were tested for VEGFR-2 inhibitory activity at Bio Science Corporation (BPS, San Diego, CA, USA). The assay was performed using the Kinase-Glo Plus luminescence kinase assay kit (Promega, San Diego, CA, USA). It measures kinase activity by quantitating the amount of ATP remaining in solution following a kinase reaction. […].
The in-vitro enzyme inhibition determination for the synthesized compounds was carried out at Bio Science Corporation (BPS)-San Diego, CA, USA. The assay was performed using Kinase-Glo Plus luminescence kinase assay kit (Promega), where the kinase activity was measured by quantitating the amount of ATP remaining in solution following a kinase reaction. The luminescent signal from the assay is correlated with the amount of ATP present and is inversely correlated with the amount of kinase activity. Our compounds were diluted with 10% DMSO and 5 µL of the dilution was added to a 50 µL reaction so that the final concentration of DMSO is 1% in all of reactions. All of the enzymatic reactions were conducted at 30 °C for 40 min. The 50 µL reaction mixture contains 40 mM Tris, pH 7.4, 10 mM MgCl2, 0.1 mg/mL BSA, 1 mM DTT, 10 µM ATP, Kinase substrate and the enzyme. After the enzymatic reaction, 50 µL of Kinase-Glo Plus Luminescence kinase assay solution (Promega San Diego, CA, USA) was added to each reaction and incubate the plate for 5 min at room temperature. Luminescence signal was measured using a BioTek Synergy 2 microplate reader.
Kinase activity assays were performed in duplicate at each concentration. The luminescence data were analyzed using the computer software, Graphpad Prism. The difference between luminescence intensities in the absence of Kinase (Lut) and in the presence of Kinase (Luc) was defined as 100% activity (Lut − Luc). Using luminescence signal (Lu) in the presence of the compound, % activity was calculated as:% activity = {(Lut − Lu)(Lut − Luc)} × 100% where Lu = the luminescence intensity in the presence of the compound.

[2] = tested on: fibroblast-like fetal lung cell line (WI-38); assay: In vitro MTT cytotoxicity assay on normal WI-38 cells
Protocol: Cell Line cells were obtained from American Type Culture Collection, cells were cultured using DMEM (Invitrogen/Life Technologies, Waltham, MA, USA) supplemented with 10% FBS (Hyclone, Waltham, MA, USA), 10 μg/mL of insulin (Sigma), and 1% penicillin-streptomycin. All of the other chemicals and reagents were from Sigma, or Invitrogen. Plate cells (cells density 1.2–1.8 × 10,000 cells/well) in a volume of 100 µL complete growth medium + 100 μL of the tested compound per well in a 96-well plate for 24 h before the MTT assay.

[3] = tested on: three tumor cell lines (HCT116, Hep G2 and MCF-7); assay: In vitro anti-cancer activity stated for the tested cell lines together; type: cell-based, human; details: HCT116, Hep G2 and MCF-7 together
Protocol: (§1) The targeted compounds were tested for their in-vitro anti-cancer activity against three tumor cell lines (HCT116, Hep G2 and MCF-7). Doxorubicin was included in the experiments as a reference cytotoxic compound. Exponentially growing cells from different cancer cell lines were trypsinized, counted and seeded at the appropriate densities into 96-well microtiter plates. Cells then were incubated in a humidified atmosphere at 37 °C for 24 h. Then, cells were exposed to different concentrations of compounds for 72 h. Then the viability of treated cells was determined using MTT technique (described latter).
(§2) Three cancer cell lines including human colon carcinoma (HCT116), human breast adenocarcinoma (MCF-7) and human hepatocellular carcinoma (Hep G2), were purchased from American Type Cell Culture Collection (ATCC, Manassas, VA, USA) and grown on the appropriate growth medium Dulbecco’s modified Eagle’s medium (DMEM) or Roswell Park Memorial Institute medium (RPMI 1640) supplemented with […] of streptomycin, 100 units/mL of penicillin and 10% of heat-inactivated fetal bovine serum in a humidified, 5% (v/v) CO2 atmosphere at 37 °C [34]. Cytotoxicity assay by 3-[4,5-dimethylthiazole-2-yl]-2,5-diphenyltetrazolium bromide (MTT).
Exponentially growing cells from different cancer cell lines were trypsinized, counted and seeded at the appropriate densities (2000–1000 cells/0.33 cm^2 well) into 96-well microtiter plates. Cells then were incubated in a humidified atmosphere at 37 °C for 24 h. Then, cells were exposed to different concentrations of compounds (0.1, 10, 100, 1000 µM) for 72 h. Then the viability of treated cells was determined using MTT technique as follow. Media were removed; cells were incubated with 200 μL of 5% MTT solution/well (Sigma Aldrich, Darmstadt, Germany) and were allowed to metabolize the dye into a colored-insoluble formazan crystal for 2 h. […] Absorbance were measured at 570 nm using a Stat Fax^R 4200 plate reader (Awareness Technology, Inc., Awareness Technology, FL, USA). […]

HCT116 cells [4] = assay: Cell cycle analysis by flow cytometry; type: cell-based, human; details: 2.5 µM
Protocol: The effect of compound VIIIc on the normal cell cycle progression was characterized using flow cytometric analysis of the DNA ploidy in HCT116 cells Figure 3. […] The observed increase in pre-G cell population may imply DNA fragmentation and apoptosis as a potential mechanism for VIIIc-induced cancer cell death.
HCT116 cells at a density of 4 × 10^6 cell/T 75 flask were exposed to 1-(4-Chlorophenyl)-3-(4-((3-methylquinoxalin-2-yl)amino)phenyl)urea VIIIc at its IC50 concentration for 24 and 48 h. The cells then were collected by trypsinization, washed with phosphate buffered saline (PBS), and fixed in ice-cold absolute alcohol. Thereafter, cells were stained, using Cycle test ^TM Plus DNA Reagent Kit (BD Biosciences, San Jose, CA, USA), according to the manufacturer’s instructions. Cell cycle distribution was determined using a FACS Calibur flow cytometer (BD Biosciences).

[5] = tested on: Hep G2 human hepatocellular carcinoma cell line; assay: In vitro cell proliferation (MTT) assay, Hep G2; type: cell-based
Protocol: as §1, §2
(§3) Exponentially growing cells from different cancer cell lines were trypsinized, counted and seeded at the appropriate densities (2000–1000 cells/0.33 cm^2 well) into 96-well microtiter plates. Cells then were incubated in a humidified atmosphere at 37 °C for 24 h. Then, cells were exposed to different concentrations of compounds (0.1, 10, 100, 1000 µM) for 72 h. Then the viability of treated cells was determined using MTT technique as follow. Media were removed; cells were incubated with 200 μL of 5% MTT solution/well (Sigma Aldrich, Darmstadt, Germany) and were allowed to metabolize the dye into a colored-insoluble formazan crystal for 2 h. The remaining MTT solution were discarded from the wells and the formazan crystals were dissolved in 200 µl/well acidified isopropanol for 30 min, covered with aluminum foil and with continuous shaking using a MaxQ 2000 plate shaker (Thermo Fisher Scientific Inc, Waltham, MA, USA) at room temperature. Absorbance were measured at 570 nm using a Stat Fax^R 4200 plate reader (Awareness Technology, Inc., Awareness Technology, FL, USA). The cell viability was expressed as percentage of control and the concentration that induces 50% of maximum inhibition of cell proliferation (IC50) were determined using Graph Pad Prism version 5 software (Graph Pad Software Inc, San Diego, CA, USA) (1,2).

[6] = tested on: HCT116 human colon carcinoma cell line; assay: In vitro cell proliferation (MTT) assay, HCT116; type: cell-based; details: Homo sapiens, HCT-116; MTT, 72 h exposure
Protocol: as §1, §2, §3

[7] = tested on: MCF-7 human breast adenocarcinoma cell line; assay: In vitro cell proliferation (MTT) assay, MCF-7; type: cell-based; details: Homo sapiens, MCF7; MTT, 72 h exposure
Protocol: as §1, §2, §3

HCT116 cells [8] = assay: Annexin V-FITC/PI apoptosis determination; type: cell-based, human; details: IC50 (2.5 µM), 24 h and 48 h, compared to DMSO treated cells
Text: For further investigation of the ability of compound VIIIc to induce apoptosis, an Annexin V (conjugated to FITC) apoptosis detection kit was employed. This assay detects phosphatidylserine (PS) expressed on the surface of apoptotic cells and fluoresces green after interacting with the labeled annexin V. During early apoptosis, membrane asymmetry is lost, and PS translocates from the cytoplasmic side of the membrane to the external leaflet. Propidium iodide (PI), the counterstain used in this assay, has the ability to cross only compromised membranes to intercalate into the DNA. Therefore, PI is used to detect the late stages of apoptosis by presence of red fluorescence.
Apoptosis was determined by staining cells with Annexin V–fluorescein isothiocyanate (FITC) and counterstaining with propidium iodide (PI) using the Annexin V–FITC/PI apoptosis detection kit (BD PharMingen, San Diego, CA, USA) according to the manufacturer’s instructions. Briefly, 4 × 10^6 cell/T 75 flask were exposed to compound VIIIc at its IC50 concentration for 24 and 48 h. The cells then were collected by trypsinization and 0.5 × 10^6 cells were washed twice with phosphate-buffered saline (PBS) and stained with 5 μL Annexin V–FITC and 5 μL PI in 1× binding buffer (BD PharMingen) for 15 min at room temperature in the dark. Analyses were performed using FACS Calibur flow cytometer (BD Biosciences).

VEGFR-2 [9] = molecular target: T1, VEGFR-2; details: cited from earlier work

T1 sequence (P35968 20-1356): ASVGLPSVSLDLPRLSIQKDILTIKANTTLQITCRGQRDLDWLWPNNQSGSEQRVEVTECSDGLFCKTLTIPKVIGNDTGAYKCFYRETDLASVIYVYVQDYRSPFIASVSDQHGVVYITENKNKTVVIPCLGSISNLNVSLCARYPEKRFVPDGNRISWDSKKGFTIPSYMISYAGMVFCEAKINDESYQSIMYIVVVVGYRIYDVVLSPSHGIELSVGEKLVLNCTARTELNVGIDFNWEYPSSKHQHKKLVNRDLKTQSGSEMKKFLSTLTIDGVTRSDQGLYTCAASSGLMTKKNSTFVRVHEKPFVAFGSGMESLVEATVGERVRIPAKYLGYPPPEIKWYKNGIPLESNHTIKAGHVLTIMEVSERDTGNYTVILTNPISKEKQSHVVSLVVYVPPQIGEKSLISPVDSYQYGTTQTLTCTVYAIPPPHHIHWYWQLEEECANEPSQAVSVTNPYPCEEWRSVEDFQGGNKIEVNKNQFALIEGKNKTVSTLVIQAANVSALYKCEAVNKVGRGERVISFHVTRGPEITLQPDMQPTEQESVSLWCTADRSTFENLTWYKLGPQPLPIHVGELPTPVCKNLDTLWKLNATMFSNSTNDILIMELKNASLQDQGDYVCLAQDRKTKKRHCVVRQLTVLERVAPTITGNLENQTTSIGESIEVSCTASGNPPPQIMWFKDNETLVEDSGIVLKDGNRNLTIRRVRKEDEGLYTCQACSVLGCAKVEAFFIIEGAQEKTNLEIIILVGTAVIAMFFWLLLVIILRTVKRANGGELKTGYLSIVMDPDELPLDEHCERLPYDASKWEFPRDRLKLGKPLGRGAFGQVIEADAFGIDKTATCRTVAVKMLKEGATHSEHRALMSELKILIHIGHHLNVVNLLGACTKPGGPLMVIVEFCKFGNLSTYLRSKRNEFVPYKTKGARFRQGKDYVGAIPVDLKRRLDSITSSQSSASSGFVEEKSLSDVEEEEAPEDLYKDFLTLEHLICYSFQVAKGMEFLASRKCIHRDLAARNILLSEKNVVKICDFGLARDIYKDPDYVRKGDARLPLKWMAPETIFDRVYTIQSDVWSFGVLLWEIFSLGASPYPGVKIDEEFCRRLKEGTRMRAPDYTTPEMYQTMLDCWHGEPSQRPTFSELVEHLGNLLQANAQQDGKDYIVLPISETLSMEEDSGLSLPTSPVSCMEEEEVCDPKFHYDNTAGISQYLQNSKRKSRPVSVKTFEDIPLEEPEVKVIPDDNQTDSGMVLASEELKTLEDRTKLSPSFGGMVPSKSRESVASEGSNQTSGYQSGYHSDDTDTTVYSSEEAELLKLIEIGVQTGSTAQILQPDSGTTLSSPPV

| SMILES | activity against VEGFR-2 (in words) (VEGFR-2 [1]; 10 µM) | inhibition at 10 µM (VEGFR-2 [1]; single concentration of 10 µM, read-out: % of VEGFR-2 Inhibition) | selectivity as anti-cancer agent (in words), from WI-38 IC50 [2] | IC50 ([2]; read-out: IC50 on WI-38 cell line, MTT, normal cell line) | activity against the tested cell lines (in words) [3] | effect on cell cycle profile (in words) (HCT116 cells [4]; 24 h) | effect on cell cycle profile (in words) (HCT116 cells [4]; 48 h) | anti-cancer activity against Hep G2 cell line (in words) [5] | IC50 ([5]; Homo sapiens, HepG2, MTT, 72 h exposure) | IC50 [6] | IC50 [7] | annexin-V positive cells (in words) (HCT116 cells [8]) | inhibition percentage against VEGFR-2 (VEGFR-2 [9]) |
| --- | --- | --- | --- | --- | --- | --- | --- | --- | --- | --- | --- | --- | --- |
| Cc1nc2ccccc2nc1Nc1ccc(NC(=O)Nc2ccc(Cl)cc2)cc1 [Compound VIIIc, 1-(4-Chlorophenyl)-3-(4-((3-methylquinoxalin-2-yl)amino)phenyl)urea] | weak activity | 7% | moderate selectivity | 97.2 ± 5.66 µM | promising activity | increase in G1 phase | cell cycle arrest at G2/M phase boundary | moderate activity | 22 µM | 2.5 µM | 9 µM | increased the percentage of annexin-V positive cells |  |
| COc1ccc(Nc2nc3ccc(NC(=O)c4ccccc4C(=O)O)cc3[nH]c2=O)cc1 [Compound 4] |  |  |  |  |  |  |  |  |  |  |  |  | 69% |
